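A five-concentration, 48-hour dose response in 96-well plates underlies each endpoint, interpolated linearly between surrounding concentrations. At the GI50, growth is halved.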 Activity calls are given as the source filed them. Rule as the data show it: active = GI50 up to about 1.1 µM and inactive = higher.
How the values were obtained:
Test in all cases: growth of human tumour cells (NCI), 48 h
SR = test system: SR
A498 = test system: A498
K562 = test system: K562
LOX IMVI = test system: LOX IMVI
SNB-75 = test system: SNB-75
M14 = test system: M14
SN12C = test system: SN12C
NCI/ADR-RES = test system: NCI/ADR-RES
HCT-15 = test system: HCT-15
HOP-92 = test system: HOP-92
HCT-116 = test system: HCT-116
HL-60 = test system: HL-60
SF-268 = test system: SF-268
MOLT-4 = test system: MOLT-4
HT-29 = test system: HT-29
SNB-19 = test system: SNB-19
SK-OV-3 = test system: SK-OV-3
NCI-H23 = test system: NCI-H23
T47D = test system: T47D
MDA-MB-435 = test system: MDA-MB-435

Compound | GI50 (SR) | GI50 (A498) | GI50 (K562) | GI50 (LOX IMVI) | GI50 (SNB-75) | GI50 (M14) | GI50 (SN12C) | GI50 (NCI/ADR-RES) | GI50 (HCT-15) | GI50 (HOP-92) | GI50 (HCT-116) | GI50 (HL-60) | GI50 (SF-268) | GI50 (MOLT-4) | GI50 (HT-29) | GI50 (SNB-19) | GI50 (SK-OV-3) | GI50 (NCI-H23) | GI50 (T47D) | GI50 (MDA-MB-435)
CCC/C(Cl)=N/OC(=O)Nc1cc(C(F)(F)F)ccc1OC | 2.79 µM (inactive) | 15.1 µM (inactive) | 1.79 µM (inactive) | 4.46 µM (inactive) | 15.1 µM (inactive) | 4.4 µM (inactive) | 14.3 µM (inactive) | 17.5 µM (inactive) | 5.31 µM | 2.43 µM (inactive) | 9.89 µM (inactive) | 1.77 µM (inactive) | 16.1 µM (inactive) | 2.1 µM (inactive) | 20.7 µM (inactive) | 17.6 µM (inactive) | 6.17 µM (inactive) | 18.7 µM (inactive) | 6.44 µM (inactive) | 13.4 µM (inactive)
[O-]/[N+](=C\c1ccccc1OC(=S)S)c1ccc(Cl)cc1 | 21.8 µM (inactive) | 59.8 µM (inactive) | 10.6 µM (inactive) | 14.9 µM (inactive) | > 100 µM (inactive) | 24.2 µM (inactive) | 24.8 µM (inactive) | 18.5 µM (inactive) | 15.7 µM | 2.87 µM (inactive) | 10.1 µM (inactive) | 0.22 µM (active) | 19.5 µM (inactive) | 5.46 µM (inactive) | 22.4 µM (inactive) | 83.4 µM (inactive) | > 100 µM (inactive) | 23.8 µM (inactive) | 6.01 µM (inactive) | 15.7 µM (inactive)
Cc1ccc2nnc(NS(=O)(=O)c3cc(C)c(Cl)cc3S)n2n1 | > 100 µM (inactive) | > 100 µM (inactive) | > 100 µM (inactive) | > 100 µM (inactive) | > 100 µM (inactive) | > 100 µM (inactive) | > 100 µM (inactive) | > 100 µM (inactive) | > 100 µM | > 100 µM (inactive) | > 100 µM (inactive) | > 100 µM (inactive) | > 100 µM (inactive) | > 100 µM (inactive) | > 100 µM (inactive) | > 100 µM (inactive) | > 100 µM (inactive) |  | > 100 µM (inactive) | > 100 µM (inactive)
COc1cc(CNC(=O)CCCCCCCC/C=C/Br)ccc1O | > 10 µM (inactive) | > 10 µM (inactive) | > 10 µM (inactive) | > 10 µM (inactive) | > 10 µM (inactive) | > 10 µM (inactive) | > 10 µM (inactive) | > 10 µM (inactive) | > 10 µM | > 10 µM (inactive) | > 10 µM (inactive) | > 10 µM (inactive) | > 10 µM (inactive) | > 10 µM (inactive) | > 10 µM (inactive) | > 10 µM (inactive) | > 10 µM (inactive) | > 10 µM (inactive) | > 10 µM (inactive) | > 10 µM (inactive)
Fc1cc(-c2cc(-c3ccccc3)no2)c(Cl)cc1Cl | 13.9 µM (inactive) | > 33 µM (inactive) | 29.4 µM (inactive) | 13.2 µM (inactive) | > 31.6 µM (inactive) | 23.1 µM (inactive) | > 32.4 µM (inactive) | 54.8 µM (inactive) | 36 µM | 7.69 µM (inactive) | 13.8 µM (inactive) | 19.7 µM (inactive) | 19.4 µM (inactive) | 12.4 µM (inactive) | 15.8 µM (inactive) | > 40.6 µM (inactive) | > 32.5 µM (inactive) | 14 µM (inactive) | 14 µM (inactive) | 11.4 µM (inactive)
Cc1cn(C2CC(O)C(Cn3nncc3Cn3cnc4c(N)ncnc43)O2)c(=O)[nH]c1=O (centres undefined) | > 100 µM (inactive) | > 100 µM (inactive) |  | > 100 µM (inactive) | 58.3 µM (inactive) | > 100 µM (inactive) | > 100 µM (inactive) | > 100 µM (inactive) | > 100 µM | > 100 µM (inactive) | > 100 µM (inactive) | > 100 µM (inactive) | > 100 µM (inactive) | > 100 µM (inactive) |  | > 100 µM (inactive) | > 100 µM (inactive) | > 100 µM (inactive) | > 100 µM (inactive) | > 100 µM (inactive)
CCCCc1ccc(Nc2nc(S)c3ncn(COCCO)c3n2)cc1 | 24 µM (inactive) | > 100 µM (inactive) | 15.5 µM (inactive) | 27.4 µM (inactive) | 41 µM (inactive) | 44.4 µM (inactive) | 39.7 µM (inactive) | > 100 µM (inactive) | > 100 µM | 27.4 µM (inactive) | 65 µM (inactive) | 25.2 µM (inactive) | > 10 µM (inactive) | 33.5 µM (inactive) | 50.5 µM (inactive) | 31.2 µM (inactive) | > 100 µM (inactive) | 34.4 µM (inactive) | 11.6 µM (inactive) | 57.4 µM (inactive)
c1ccc(-c2c3c(nc4c2CC[C@H]4NC2=NCCN2)[C@@H](NC2=NCCN2)CC3)cc1 | > 100 µM (inactive) | > 100 µM (inactive) | > 100 µM (inactive) | 59 µM (inactive) | 58.1 µM (inactive) | > 100 µM (inactive) | > 100 µM (inactive) | > 100 µM (inactive) | > 100 µM | 20.7 µM (inactive) | 48.5 µM (inactive) | 11.2 µM (inactive) | 63.4 µM (inactive) | 56.2 µM (inactive) | > 100 µM (inactive) |  | > 100 µM (inactive) | > 100 µM (inactive) | > 100 µM (inactive) | > 100 µM (inactive)
O=C1CC(O)c2cscc21 (centres undefined) | 29.5 µM (inactive) | > 100 µM (inactive) | 38.1 µM (inactive) | 36.5 µM (inactive) | > 100 µM (inactive) |  | > 100 µM (inactive) | > 100 µM (inactive) | > 100 µM | > 100 µM (inactive) | > 100 µM (inactive) | > 100 µM (inactive) | > 100 µM (inactive) | 35.2 µM (inactive) | > 100 µM (inactive) |  | > 100 µM (inactive) | > 100 µM (inactive) | > 100 µM (inactive) | > 100 µM (inactive)
N#C[BH2-][n+]1cn(C2CC(OP(=O)(O)OCC3OC(n4ccc(N)nc4=O)CC3O)C(CO)O2)c2nc(N)[nH]c(=O)c21 (centres undefined) | > 100 µM (inactive) | > 100 µM (inactive) | > 100 µM (inactive) | > 100 µM (inactive) | > 100 µM (inactive) |  | > 100 µM (inactive) | > 100 µM (inactive) | > 100 µM | > 100 µM (inactive) | > 100 µM (inactive) | > 100 µM (inactive) | > 100 µM (inactive) | > 100 µM (inactive) | > 100 µM (inactive) | > 100 µM (inactive) | > 100 µM (inactive) | > 100 µM (inactive) | > 100 µM (inactive) | > 100 µM (inactive)
FC(F)(F)c1ccc2c(c1)nc(Cc1ccc(Cl)cc1)n2CC1CCCN2CCCCC12 (centres undefined) | 2.29 µM (inactive) | 14.2 µM (inactive) | 4.18 µM (inactive) | 2.15 µM (inactive) | 1.59 µM (inactive) | 2.07 µM (inactive) | 9.79 µM (inactive) | 8.18 µM (inactive) | 8.69 µM | 7.67 µM (inactive) | 6.35 µM (inactive) | 2.23 µM (inactive) | 5.07 µM (inactive) | 3.18 µM (inactive) | 2.81 µM (inactive) | 14 µM (inactive) | 11.9 µM (inactive) |  | 6.61 µM (inactive) | 6.27 µM (inactive)
O=C(N/N=C\c1ccc([N+](=O)[O-])cc1)Nc1ccccc1 | > 100 µM (inactive) | > 100 µM (inactive) | > 100 µM (inactive) | > 10 µM (inactive) | > 100 µM (inactive) | > 100 µM (inactive) | > 100 µM (inactive) | > 100 µM (inactive) | > 100 µM | > 100 µM (inactive) | > 100 µM (inactive) | > 100 µM (inactive) |  | > 100 µM (inactive) | > 100 µM (inactive) | > 100 µM (inactive) | > 100 µM (inactive) | > 100 µM (inactive) | > 100 µM (inactive) | > 100 µM (inactive)
c1ccc(COC2C3COC(O3)C(OCc3ccccc3)C2OCc2ccccc2)cc1 (centres undefined) | 4.84 µM (inactive) | > 100 µM (inactive) | 27.9 µM (inactive) | 30.6 µM (inactive) | 22.8 µM (inactive) | 32.2 µM (inactive) | 13.6 µM (inactive) | 32.1 µM (inactive) | 34 µM | 67.1 µM (inactive) | 33.9 µM (inactive) | 13.2 µM (inactive) | > 100 µM (inactive) | 6.75 µM (inactive) |  | 27.3 µM (inactive) | > 100 µM (inactive) | 77.3 µM (inactive) | 22.9 µM (inactive) | 18.2 µM (inactive)
C[C@H](CCC(=O)O)[C@H]1CC[C@H]2[C@@H]3[C@@H](O)C[C@@H]4C[C@H](O)CC[C@]4(C)[C@H]3C[C@H](O)[C@]12C | > 100 µM (inactive) | > 100 µM (inactive) | > 100 µM (inactive) | > 100 µM (inactive) | > 100 µM (inactive) | > 100 µM (inactive) | > 100 µM (inactive) | > 100 µM (inactive) | > 100 µM | > 100 µM (inactive) | > 100 µM (inactive) | > 100 µM (inactive) | > 100 µM (inactive) | > 100 µM (inactive) | > 100 µM (inactive) | > 100 µM (inactive) |  | > 100 µM (inactive) | > 100 µM (inactive) | > 100 µM (inactive)
